According to US20250144067A1, “PERSONALIZED STARVATION THERAPY FOR CANCER” (Faeth Therapeutics, Inc., priority 2021, published 2025):
Counter-ions that a name gives are not always drawn. Numbered stars: 1 amine (or outer) side, 2 acyl side, 3 side chain; on linkers, the order of the positions; unused ones are H or OH. Bridge positions count the residues as written; N and C are the ends. Square brackets hold non-standard residues; d marks the D form. Peptide text beside a SMILES is read from it. * marks the point of attachment. pTerphenylCO(4''-OnC5H11) = CCCCCOc1ccc(-c2ccc(-c3ccc(C(=O)*)cc3)cc2)cc1; Orn(4R-OH,5R-OH) = O=C([C@H](C[C@@H](O)[C@@H](O)N[*:3])N[*:1])[*:2]; hTyr(3S-OH,4S-OH) = N[C@H](C(=O)O)[C@H](O)[C@@H](O)c1ccc(O)cc1; Pro(3S-OH,4S-Me) = C[C@H]1CN[C@H](C(=O)O)[C@H]1O; Hyp = O=C(O)[C@@H]1C[C@@H](O)CN1

Key:
[1] = tested on: NCI-H292 lung cancer cells; test: FDA drug screening, complete media vs cholesterol-free media without statin (TABLE 1); format: cell-based, human
[2] = tested on: NCI-H292 lung cancer cells; test: FDA drug screening, complete media vs cholesterol-free media with simvastatin (TABLE 2); format: cell-based, human; details: for Cholesterol-free media + simvastatin (0.04 μM) / Complete Media: NCI-H292 cells
[3] = NCI-H292 cells, cholesterol-free media without statin, FDA drug library screen
[4] = NCI-H292 cells, complete media, FDA drug library screen
[5] = complete vs cholesterol-free media, >0 enhanced anti-cancer activity, about 0 neutral, <0 antagonist
[6] = FDA drug library screen, cholesterol-free media with simvastatin 0.04 μM
[7] = FDA drug library screen, complete media
[8] = complete media minus cholesterol-free media + simvastatin, >0 enhanced anti-cancer activity, about 0 neutral, <0 antagonist
[9] = NCI-H292 cells, cholesterol-free media without statin
[10] = complete vs cholesterol-free media, greater than 0 enhanced anti-cancer activity, about 0 neutral, below 0 antagonists
[11] = FDA library drug in cholesterol-free media with simvastatin 0.04 μM
[12] = FDA library drug in complete media
[13] = complete media vs cholesterol-free media + simvastatin (0.04 μM), >0 enhanced anti-cancer activity, about 0 neutral, <0 antagonist
[14] = Complete minus Cholesterol-free, greater than 0 enhanced anti-cancer activity, about 0 neutral, below 0 antagonist
[15] = NCI-H292 cells, FDA drug library screen, cholesterol-free media without statin
[16] = NCI-H292 cells, FDA drug library screen, complete media
[17] = drug in cholesterol-free media with simvastatin 0.04 μM
[18] = Complete minus Cholesterol-free, >0 enhanced anti-cancer activity, about 0 neutral, <0 antagonist
[19] = cholesterol-free media with simvastatin 0.04 μM, cell growth value in FDA drug screen
[20] = complete media, cell growth value in FDA drug screen
[21] = Complete minus Cholesterol-free, greater than 0 enhanced anti-cancer activity, about 0 neutral, below 0 antagonists
[22] = NCI-H292 cells in cholesterol-free media without statin
[23] = NCI-H292 cells in complete media
[24] = cholesterol-free media with simvastatin 0.04 μM, FDA drug library screen (TABLE 2)
[25] = complete media, FDA drug library screen (TABLE 2)
[26] = complete media minus cholesterol-free media + simvastatin (0.04 μM), >0 enhanced anti-cancer activity, about 0 neutral, <0 antagonist

Compound	Cholesterol-free [1, 3]	Complete [1, 4]	Difference [1, 5]	Cholesterol-free media + simvastatin (0.04 μM) [2, 6]	Difference [2, 8]	Cholesterol-free [1, 9]	Complete ([1]; NCI-H292 cells, complete media)	Difference [2, 13]	Difference [1, 18]	also measured
CCN(CC)Cc1cc(Nc2ccnc3cc(Cl)ccc23)ccc1O [Amodiaquine (dihydrochloride dihydrate)]	0.9158	1.353	0.44	1.209	0.40					Complete Media [2, 7]: 1.606
CCN(CC)Cc1cc(Nc2ccnc3cc(Cl)ccc23)ccc1O [Amodiaquine (dihydrochloride)]						1.475	1.037	−0.71		Difference [1, 10]: −0.44; Cholesterol-free media + simvastatin (0.04 μM) [2, 11]: 1.766; Complete Media [2, 12]: 1.059
CCC(C)(C)c1ccc(CC(C)CN2C[C@@H](C)O[C@@H](C)C2)cc1 (stereo partly shown) [Amorolfine (hydrochloride)]				0.4078	0.61	1.233	0.8449			Difference [1, 10]: −0.39; Complete Media [2, 7]: 1.021
Clc1ccc2c(c1)C(N1CCNCC1)=Nc1ccccc1O2 [Amoxapine]	1.3	1.39	0.09					−0.57		Cholesterol-free media + simvastatin (0.04 μM) [2, 11]: 1.586; Complete Media [2, 12]: 1.017
CC1(C)S[C@@H]2[C@H](NC(=O)[C@H](N)c3ccc(O)cc3)C(=O)N2[C@H]1C(=O)[O-].[Na+] [Amoxicillin (sodium)]								−0.18		Difference [1, 14]: −0.16; Cholesterol-free [1, 15]: 0.8965; Complete [1, 16]: 0.7329; Cholesterol-free media + simvastatin (0.04 μM) [2, 17]: 0.9358; Complete Media ([2]; drug in complete media): 0.759
CC1(C)S[C@@H]2[C@H](NC(=O)[C@H](N)c3ccc(O)cc3)C(=O)N2[C@H]1C(=O)O [Amoxicillin (trihydrate)]	0.8623	0.9771	0.11	0.7666	0.25					Complete Media [2, 7]: 1.02
CC1(C)S[C@@H]2[C@H](NC(=O)[C@H](N)c3ccc(O)cc3)C(=O)N2[C@H]1C(=O)O [Amoxicillin]	0.9555	1.159	0.20	0.9948	0.39					Complete Media [2, 7]: 1.386
C[C@@H]1[C@H](O)[C@@H](C)/C=C/C=C/C=C/C=C/C=C/C=C/C=C/[C@H](O[C@@H]2O[C@H](C)[C@@H](O)[C@H](N)[C@@H]2O)C[C@@H]2O[C@](O)(C[C@@H](O)C[C@@H](O)[C@H](O)CC[C@@H](O)C[C@@H](O)CC(=O)O[C@H]1C)C[C@H](O)[C@H]2C(=O)O [Amphotericin B]	1.082	1.128						−0.26	0.05	Cholesterol-free media + simvastatin (0.04 μM) [2, 17]: 1.212; Complete Media ([2]; drug in complete media): 0.9521
CC1(C)S[C@@H]2[C@H](NC(=O)[C@H](N)c3ccccc3)C(=O)N2[C@H]1C(=O)[O-].[Na+] [Ampicillin (sodium)]						1.356	0.9032	−0.22		Difference [1, 10]: −0.45; Cholesterol-free media + simvastatin (0.04 μM) [2, 17]: 1.087; Complete Media ([2]; drug in complete media): 0.8623
CC1(C)S[C@@H]2[C@H](NC(=O)[C@H](N)c3ccccc3)C(=O)N2[C@H]1C(=O)O [Ampicillin]	0.9318	1.363	0.43					−0.31		Cholesterol-free media + simvastatin (0.04 μM) [2, 11]: 1.07; Complete Media [2, 12]: 0.7564
CCOC(=O)OC(C)OC1=C(C(=O)Nc2ccccn2)N(C)S(=O)(=O)c2ccccc21 (stereo not shown) [Ampiroxicam]	0.9909	0.9596			0.07				−0.03	Cholesterol-free media + simvastatin (0.04 μM) [2, 19]: 1.311; Complete Media [2, 20]: 1.382
CC(C)CN(C[C@@H](O)[C@H](Cc1ccccc1)NC(=O)O[C@H]1CCOC1)S(=O)(=O)c1ccc(N)cc1 [Amprenavir]	0.8915	1.403	0.51	1.669	0.33					Complete Media [2, 7]: 1.996
Nc1cc(-c2ccncc2)c[nH]c1=O [Amrinone]								−0.21		Difference [1, 21]: −0.48; Cholesterol-free [1, 22]: 1.339; Complete [1, 23]: 0.861; Cholesterol-free media + simvastatin (0.04 μM) [2, 17]: 1.157; Complete Media ([2]; drug in complete media): 0.9441
COc1cc(NS(C)(=O)=O)ccc1Nc1c2ccccc2nc2ccccc12 [Amsacrine (hydrochloride)]	0.2374	0.2416						−0.44	0.00	Cholesterol-free media + simvastatin (0.04 μM) [2, 11]: 0.8278; Complete Media [2, 12]: 0.3873
COc1cc(NS(C)(=O)=O)ccc1Nc1c2ccccc2nc2ccccc12 [Amsacrine]						0.3482	0.1517		−0.20	Cholesterol-free media + simvastatin (0.04 μM) [2, 24]: 0.3844; Complete Media [2, 25]: 0.346; Difference [2, 26]: −0.04
Cc1cc2ncc(C(=O)NCC(C)(C)NCC(=O)N3CCC[C@H]3C#N)cn2n1 [Anagliptin]				1.09		1.234	1.003	−0.12	−0.23	Complete Media [2, 7]: 0.9692
O=C1CN2Cc3c(ccc(Cl)c3Cl)N=C2N1 [Anagrelide (hydrochloride)]						0.988	0.7326	−0.27	−0.26	Cholesterol-free media + simvastatin (0.04 μM) [2, 11]: 1.221; Complete Media [2, 12]: 0.9483
CN(C)N(C)C(=O)[C@@]1(Cc2ccccc2)CCCN(C(=O)[C@@H](Cc2c[nH]c3ccccc23)NC(=O)C(C)(C)N)C1 [Anamorelin (hydrochloride)]										Difference [1, 21]: −0.93; Cholesterol-free [1, 22]: 1.922; Complete [1, 23]: 0.9877; Cholesterol-free media + simvastatin (0.04 μM) [2, 24]: 1.088; Complete Media [2, 25]: 1.064; Difference [2, 26]: −0.02
CN(C)N(C)C(=O)[C@@]1(Cc2ccccc2)CCCN(C(=O)[C@@H](Cc2c[nH]c3ccccc23)NC(=O)C(C)(C)N)C1 [Anamorelin]					0.10					Difference [1, 21]: −0.54; Cholesterol-free [1, 22]: 1.02; Complete [1, 23]: 0.4827; Cholesterol-free media + simvastatin (0.04 μM) [2, 19]: 1.263; Complete Media [2, 20]: 1.358
CC(C)(C#N)c1cc(Cn2cncn2)cc(C(C)(C)C#N)c1 [Anastrozole]						1.263	0.9847		−0.28	Cholesterol-free media + simvastatin (0.04 μM) [2, 24]: 1.07; Complete Media [2, 25]: 1.045; Difference [2, 26]: −0.02
C=C1CC[C@@H]2[C@](C)(CO)[C@H](O)CC[C@@]2(C)[C@@H]1C/C=C1/C(=O)OC[C@H]1O [Andrographolide]	0.8912	0.9868	0.10	1.859						Difference [2, 26]: −0.94
COc1ccc(-c2cc(=S)ss2)cc1 [Anethole (trithione)]								−0.86		Difference [1, 14]: −0.18; Cholesterol-free [1, 15]: 1.563; Complete [1, 16]: 1.382; Cholesterol-free media + simvastatin (0.04 μM) [2, 11]: 1.972; Complete Media [2, 12]: 1.115
CCCCCOc1ccc(-c2ccc(-c3ccc(C(=O)N[C@H]4C[C@@H](O)[C@@H](O)NC(=O)[C@@H]5[C@@H](O)[C@@H](C)CN5C(=O)[C@H]([C@@H](C)O)NC(=O)[C@H]([C@H](O)[C@@H](O)c5ccc(O)cc5)NC(=O)[C@@H]5C[C@@H](O)CN5C(=O)[C@H]([C@@H](C)O)NC4=O)cc3)cc2)cc1 [Anidulafungin] ({pTerphenylCO(4''-OnC5H11)}-[Orn(4R-OH,5R-OH)]T[Hyp][hTyr(3S-OH,4S-OH)]T[Pro(3S-OH,4S-Me)]; lactam 1-C)				1.251		1.481	1.247			Difference ([1]; Complete minus Cholesterol-free, […]): −0.23; Difference ([2]; complete media minus cholesterol-free media + simvastatin (0.04 μM), […]): −1.03
COc1ccc(C(=O)N2CCCC2=O)cc1 [Aniracetam]	0.69	1.062	0.37							Cholesterol-free media + simvastatin (0.04 μM) [2, 24]: 1.041; Complete Media [2, 25]: 1.006; Difference [2, 26]: −0.04
COc1ccc(C2C(=O)c3ccccc3C2=O)cc1 [Anisindione]	0.8915	1.35	0.46	1.296	0.32					Complete Media [2, 7]: 1.617
c1ccc(CN(CC2=NCCN2)c2ccccc2)cc1 [Antazoline (hydrochloride)]						1.006	0.7704	−0.19	−0.24	Cholesterol-free media + simvastatin (0.04 μM) [2, 17]: 1.401; Complete Media ([2]; drug in complete media): 1.21
